{"source": "patent US20260250290A1", "about": "(BRISTOL-MYERS SQUIBB COMPANY, priority 2023, published 2026)", "note": "pIC50: −log10 of the molar value. Structures can show the parent of a compound that is named as a salt.", "data": [{"target": "T1, full length SGK1 (Homo sapiens, UniProt O00141)", "T1 construct": "125 μM full length SGK1 (Life Technologies Part #PR7358A); purchased Life Technologies PR7358A", "T1 sequence (O00141 1-431)": "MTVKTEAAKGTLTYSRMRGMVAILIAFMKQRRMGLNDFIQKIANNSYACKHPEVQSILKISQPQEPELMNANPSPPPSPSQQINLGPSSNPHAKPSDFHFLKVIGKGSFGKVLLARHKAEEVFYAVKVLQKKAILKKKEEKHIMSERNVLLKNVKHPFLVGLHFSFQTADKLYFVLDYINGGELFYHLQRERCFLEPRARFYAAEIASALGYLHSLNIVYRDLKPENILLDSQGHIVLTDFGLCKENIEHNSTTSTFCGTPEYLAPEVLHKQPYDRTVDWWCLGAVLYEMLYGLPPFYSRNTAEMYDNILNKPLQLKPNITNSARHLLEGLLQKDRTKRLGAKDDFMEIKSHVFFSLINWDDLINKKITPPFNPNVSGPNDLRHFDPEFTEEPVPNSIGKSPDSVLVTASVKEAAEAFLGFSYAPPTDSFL", "assay": "SGK1 inhibition Assay A (Caliper LabChip electrophoretic separation of fluorescent peptide substrate and phosphorylated product)", "format": "biochemical", "conditions": "Assay A; 20 μM ATP, 40 min incubation; read-out: SGK1 IC50", "values": [{"smiles": "CC(=O)N1CC=C(c2cc(N3CCC[C@@H](NC(=O)c4sc(Cl)cc4OC4CCNC(C)(C)C4)C3)c3c(N)ncnn23)C1", "note": "(mixture of isomers) [Example 627, N-((R)-1-(7-(1-acetyl-2,5-dihydro-1H-pyrrol-3-y1)-4-aminopyrrolo[2,1-f][1,2,4]triazin-5-yl)piperidin-3-y1)-5-chloro-3-((2,2-dimethylpiperidin-4-yl)oxy)thiophene-2-carboxamide]", "pIC50": 8.00}, {"smiles": "COC(=O)N1CC=C(c2cc(N3CCC[C@@H](NC(=O)c4sc(Cl)cc4OC4CCNC(C)(C)C4)C3)c3c(N)ncnn23)C1", "note": "(mixture of isomers) [Example 628, methyl 3-(4-amino-5-((3R)-3-(5-chloro-3-((2,2-dimethylpiperidin-4-yl)oxy)thiophene-2-carboxamido)piperidin-1-yl)pyrrolo[2,1-f][1,2,4]triazin-7-y1)-2,5-dihydro-1H-pyrrole-1-carboxylate]", "pIC50": 9.00}, {"smiles": "CS(=O)(=O)c1ccc(-c2cc(N3CC[C@@H](F)[C@@H](NC(=O)c4ccc(Cl)s4)C3)c3c(N)ncnn23)cc1", "note": "(relative stereo) [Example 143, rel-N-((3R,4S)-1-(4-amino-7-(4-(methylsulfonyl)phenyl)pyrrolo[2,1-f][1,2,4]triazin-5-yl)-4-fluoropiperidin-3-yl)-5-chlorothiophene-2-carboxamide, TFA]", "pIC50": 8.00}, {"smiles": "CS(=O)(=O)c1ccc(-c2cc(N3CC[C@H](F)[C@@H](NC(=O)c4ccc(Cl)s4)C3)c3c(N)ncnn23)cc1", "note": "(relative stereo) [Example 144, rel-N-((3R,4R)-1-(4-amino-7-(4-(methylsulfonyl)phenyl)pyrrolo[2,1-f][1,2,4]triazin-5-yl)-4-fluoropiperidin-3-yl)-5-chlorothiophene-2-carboxamide, TFA]", "pIC50": 7.62}, {"smiles": "CS(=O)(=O)c1ccc(-c2cc(N3CC[C@@H]4C[C@]4(NC(=O)c4ccc(Cl)s4)C3)c3c(N)ncnn23)cc1", "note": "(relative stereo) [Example 165, rel-N-((1R,6R)-3-(4-amino-7-(4-(methylsulfonyl)phenyl)pyrrolo[2,1-f][1,2,4]triazin-5-yl)-3-azabicyclo[4.1.0]heptan-1-yl)-5-chlorothiophene-2-carboxamide, TFA]", "pIC50": 6.55}, {"smiles": "Nc1ncnn2c(C3=CCN(C(=O)[C@H]4C[C@@H]4F)C3)cc(N3CCC[C@@H](NC(=O)c4sc(Cl)cc4OCCN4CCOCC4)C3)c12", "note": "(relative stereo) [Example 262, rel-N-((R)-1-(4-amino-7-(1-((1R,2S)-2-fluorocyclopropane-1-carbonyl)-2,5-dihydro-1H-pyrrol-3-yl)pyrrolo[2,1-f][1,2,4]triazin-5-yl)piperidin-3-yl)-5-chloro-3-(2-morpholinoethoxy)thiophene-2-carboxamide]", "pIC50": 7.74}, {"smiles": "CC(=O)N1CC=C(c2cc(N3CCC[C@@H](NC(=O)c4sc(Cl)cc4OCC4CCCN4)C3)c3c(N)ncnn23)C1", "note": "(single isomer, unassigned) [Example 391D]", "pIC50": 8.70}, {"smiles": "CC(=O)N1CC=C(c2cc(N3CCC[C@@H](NC(=O)c4sc(Cl)cc4OCC4CCCN4)C3)c3c(N)ncnn23)C1", "note": "(single isomer, unassigned) [Example 391E]", "pIC50": 8.40}, {"smiles": "CC(=O)N1CC=C(c2cc(N3CCC[C@@H](NC(=O)c4sc(Cl)cc4OCC4CCCN4C)C3)c3c(N)ncnn23)C1", "note": "(single isomer, unassigned) [Example 391]", "pIC50": 8.40}, {"smiles": "CC(=O)N1CC=C(c2cc(N3CCC[C@@H](NC(=O)c4sc(C(F)F)cc4C4CCNC4)C3)c3c(N)ncnn23)C1", "note": "(single isomer, unassigned) [Example 398F]", "pIC50": 6.89}, {"smiles": "CC(=O)N1CC=C(c2cc(N3CCC[C@@H](NC(=O)c4sc(Cl)cc4OC4CCCN(C)C4)C3)c3c(N)ncnn23)C1", "note": "(single isomer, unassigned) [Example 595]", "pIC50": 7.43}, {"smiles": "CC(=O)N1CC=C(c2cc(N3CCC[C@@H](NC(=O)c4sc(Cl)cc4OC4CCNCC4F)C3)c3c(N)ncnn23)C1", "note": "(single isomer, unassigned) [Example 600D]", "pIC50": 7.72}, {"smiles": "CC(=O)N1CC=C(c2cc(N3CCC[C@@H](NC(=O)c4sc(Cl)cc4OC4CCN(C)CC4F)C3)c3c(N)ncnn23)C1", "note": "(single isomer, unassigned) [Example 600]", "pIC50": 8.22}, {"smiles": "CC(=O)N1CC=C(c2cc(N3CCC[C@@H](NC(=O)c4sc(Cl)cc4OC4CC5CC4CN5)C3)c3c(N)ncnn23)C1", "note": "(single isomer, unassigned) [Example 607]", "pIC50": 8.52}, {"smiles": "CC(=O)N1CC=C(c2cc(N3CCCC(NC(=O)c4sc(Cl)cc4OC4CC5CC4CN5C)C3)c3c(N)ncnn23)C1", "note": "(single isomer, unassigned) [Example 608]", "pIC50": 8.10}, {"smiles": "CC(=O)N1CC=C(c2cc(N3CCCC(NC(=O)c4sc(Cl)cc4OC4CC5CC4CN5C)C3)c3c(N)ncnn23)C1", "note": "(single isomer, unassigned) [Example 609]", "pIC50": 8.15}, {"smiles": "CC(=O)N1CC=C(c2cc(N3CCCC(NC(=O)c4sc(Cl)cc4OC4CC5CC4CN5C(C)C)C3)c3c(N)ncnn23)C1", "note": "(single isomer, unassigned) [Example 610]", "pIC50": 7.96}, {"smiles": "CC(=O)N1CC=C(c2cc(N3CCCC(NC(=O)c4sc(Cl)cc4OC4CC5CC4CN5C(C)C)C3)c3c(N)ncnn23)C1", "note": "(single isomer, unassigned) [Example 611]", "pIC50": 8.15}, {"smiles": "CC(=O)N1CC=C(c2cc(N3CCCC(NC(=O)c4sc(Cl)cc4OC4CCNC(C)C4)C3)c3c(N)ncnn23)C1", "note": "(single isomer, unassigned) [Example 622]", "pIC50": 8.52}, {"smiles": "CC(=O)N1CC=C(c2cc(N3CCCC(NC(=O)c4sc(Cl)cc4OC4CCNC(C)C4)C3)c3c(N)ncnn23)C1", "note": "(single isomer, unassigned) [Example 623]", "pIC50": 8.40}, {"smiles": "CC1CC(Oc2cc(Cl)sc2C(=O)NC2CCCN(c3cc(-c4cncnc4)n4ncnc(N)c34)C2)CCN1", "note": "(single isomer, unassigned) [Example 625]", "pIC50": 8.22}, {"smiles": "CC1CC(Oc2cc(Cl)sc2C(=O)NC2CCCN(c3cc(-c4cncnc4)n4ncnc(N)c34)C2)CCN1", "note": "(single isomer, unassigned) [Example 626]", "pIC50": 8.10}, {"smiles": "COC(=O)N1CC=C(c2cc(N3CCCC(NC(=O)c4sc(Cl)cc4OC4CCNC(C)(C)C4)C3)c3c(N)ncnn23)C1", "note": "(single isomer, unassigned) [Example 629]", "pIC50": 8.30}, {"smiles": "COC(=O)N1CC=C(c2cc(N3CCCC(NC(=O)c4sc(Cl)cc4OC4CCNC(C)(C)C4)C3)c3c(N)ncnn23)C1", "note": "(single isomer, unassigned) [Example 630]", "pIC50": 8.70}, {"smiles": "CC(=O)N1CC=C(c2cc(N3CCCC(NC(=O)c4sc(Cl)cc4OCC4CCNC4)C3)c3c(N)ncnn23)C1", "note": "(single isomer, unassigned) [Example 638]", "pIC50": 8.10}, {"smiles": "CC(=O)N1CC=C(c2cc(N3CCCC(NC(=O)c4sc(Cl)cc4OCC4CCNC4)C3)c3c(N)ncnn23)C1", "note": "(single isomer, unassigned) [Example 639]", "pIC50": 8.40}, {"smiles": "CCOC(=O)[C@H]1CCCN(c2cc(-c3ccc(S(C)(=O)=O)cc3)n3ncnc(N)c23)C1", "note": "[Example 1, ethyl (S)-1-(4-amino-7-(4-(methylsulfonyl)phenyl)pyrrolo[2,1-f][1,2,4]triazin-5-yl)piperidine-3-carboxylate]", "pIC50": 5.52}, {"smiles": "CS(=O)(=O)c1ccc(-c2cc(N3CCCC(NC(=O)c4ccccn4)C3)c3c(N)ncnn23)cc1", "note": "(centres unmarked) [Example 2, N-(1-(4-amino-7-(4-(methylsulfonyl)phenyl)pyrrolo[2,1-f][1,2,4]triazin-5-yl)piperidin-3-yl)picolinamide, TFA]", "pIC50": 7.09}, {"smiles": "CS(=O)(=O)c1ccc(-c2cc(N3CCCC(NC(=O)c4cccnn4)C3)c3c(N)ncnn23)cc1", "note": "(centres unmarked) [Example 3, N-(1-(4-amino-7-(4-(methylsulfonyl)phenyl)pyrrolo[2,1-f][1,2,4]triazin-5-yl)piperidin-3-yl)pyridazine-3-carboxamide, TFA]", "pIC50": 6.62}, {"smiles": "CS(=O)(=O)c1ccc(-c2cc(N3CCCC(NC(=O)c4ccccc4)C3)c3c(N)ncnn23)cc1", "note": "(centres unmarked) [Example 4, N-(1-(4-amino-7-(4-(methylsulfonyl)phenyl)pyrrolo[2,1-f][1,2,4]triazin-5-yl)piperidin-3-yl)benzamide]", "pIC50": 7.48}, {"smiles": "CS(=O)(=O)c1ccc(-c2cc(N3CCCC(NC(=O)c4ccc(Cl)cc4)C3)c3c(N)ncnn23)cc1", "note": "(centres unmarked) [Example 5, N-(1-(4-amino-7-(4-(methylsulfonyl)phenyl)pyrrolo[2,1-f][1,2,4]triazin-5-yl)piperidin-3-yl)-4-chlorobenzamide, TFA]", "pIC50": 7.14}, {"smiles": "CS(=O)(=O)c1ccc(-c2cc(N3CCCC(NC(=O)c4ccc(Cl)c(Cl)c4)C3)c3c(N)ncnn23)cc1", "note": "(centres unmarked) [Example 6, N-(1-(4-amino-7-(4-(methylsulfonyl)phenyl)pyrrolo[2,1-f][1,2,4]triazin-5-yl)piperidin-3-yl)-3,4-dichlorobenzamide]", "pIC50": 6.80}, {"smiles": "Cc1ccc(C(=O)NC2CCCN(c3cc(-c4ccc(S(C)(=O)=O)cc4)n4ncnc(N)c34)C2)cc1", "note": "(centres unmarked) [Example 7, N-(1-(4-amino-7-(4-(methylsulfonyl)phenyl)pyrrolo[2,1-f][1,2,4]triazin-5-yl)piperidin-3-yl)-4-methylbenzamide, TFA]", "pIC50": 7.05}, {"smiles": "COc1ccc(C(=O)NC2CCCN(c3cc(-c4ccc(S(C)(=O)=O)cc4)n4ncnc(N)c34)C2)cc1", "note": "(centres unmarked) [Example 8, N-(1-(4-amino-7-(4-(methylsulfonyl)phenyl)pyrrolo[2,1-f][1,2,4]triazin-5-yl)piperidin-3-yl)-4-methoxybenzamide, TFA]", "pIC50": 7.17}, {"smiles": "CS(=O)(=O)c1ccc(-c2cc(N3CCCC(NC(=O)Nc4ccccc4)C3)c3c(N)ncnn23)cc1", "note": "(centres unmarked) [Example 9, 1-(1-(4-amino-7-(4-(methylsulfonyl)phenyl)pyrrolo[2,1-f][1,2,4]triazin-5-yl)piperidin-3-yl)-3-phenylurea, TFA]", "pIC50": 6.58}]}]}
